# Measured values published in patent publication US11753373B2, “Protease inhibitors as antivirals” (priority 2021, dated 2023).
# What was measured:
# [1] = type: in vitro ADME, Human; settings: extraction ratio, compound at 1 uM, human liver microsomes 0.5 mg/mL
# Procedure: (§1) Metabolic stability of novel protease inhibitors was determined via liver microsomal stability assay. Human, mouse, SD rat, beagle dog or monkey liver microsomes were incubated with the test compound for 5 to 60 minutes at 37° C., and then the remaining parent compound was quantified by LC-MS/MS. Percentage of the test compound remaining, half-life (t1/2), in vitro intrinsic clearance (CLint, in vitro), in vivo intrinsic clearance (CLint, in vivo), hepatic clearance (CLh) and extraction ratio (ER) were calculated.
# (§2) Procedure: The assay was done as described in Baranczewski, P. et al. (2006) Pharmacological Reports 58:453-472; Pearson, P. and Wienkers, L. (2008) Handbook of Drug Metabolism, 2nd Edition. CRC Pres, P.478; and Venkatesh, P. et al. (2007) Biol. Pharm. Bull. 30:1021-2024. 0.625 mg/mL liver microsomes solution was prepared by mixing 2325 μL 100 mM of K-phosphate buffer (pH 7.4) containing 2.5 mM of MgCl2, 1.25 mM of EDTA, and 75 μL microsomes (20 mg/mL) in a vial for each species.
# (§3) Positive control compound: (±) Verapamil hydrochloride (Cat No.: V4629; Lot No.: MKBV4993V; Source: Sigma)
# 40 μL aliquots of the liver microsome/test compound mixture were dispensed into 96-well plate in triplicate and pre-warmed the mixture for 5 minutes at 37° C. Then, 10 μL of 5 mM NADPH solution was added to each well to initiate the reaction, and gently mixed. The samples were incubated at 37° C. with gentle shaking.
# (§4) For 0-min samples, 200 μL of ACN containing internal standard was added to 40 μL of liver microsome/test compound mixture, followed by addition of 5 mM NADPH, and mixed gently.
# (§5) For negative control: 40 μL of liver microsome/test compound mixture was incubated at 37° C. with gentle shaking for 60 minutes, followed by addition of 200 μL ACN containing 1% FA and internal standard and 10 μL of 5 mM NADPH, mixed gently.
# (§6) All samples were centrifuged at 4° C. for 20 minutes at 4,000 rpm. Then, 100 μL of the supernatant from each sample was transferred to a new 96-well plate and 100 μL of ultrapure water containing 1% FA was added to each well, and mixed gently. Samples were analyzed by LC-MS/MS.
# (§7) Data Analysis: Peak area ratio (Peak Area of test compound/Peak Area of internal standard) was used to represent the concentration of compound in each sample. The remaining percentage (% Remaining) at appointed time points was calculated versus the concentration of compound at 0 min. The Ln value of the remaining percentage was linearly fitted against the incubation time.
# (§8) The half-life and clearance were calculated using the following equations:
# (§9) Determined percent of the remaining test compound: % remaining=[area at tx/average areas at t0]×100 (1) % metabolized=[100−% remaining] (2)
# (§10) Calculated the half-life (t1/2) using the slope (k) of the log-linear regression from the concentration of remaining parent compound versus time (min) relationship: t1/2 (min)=−ln 2/k. (3)
# (§11) Clint, in vitro (mL/min/mg) Clint,in vitro=k/c,(c:Liver microsome concentration in the incubation system) (4)
# (§12) Hepatic Clearance (CLh) CLh=Clint,in vivo*Hepatic Blood Flow (mL/min/kg)/(Hepatic Blood Flow (mL/min/kg)+Clint,in vivo) (6)
# (§13) Extraction ratio (ER): ER=CLint,in vivo/(Qh+CLint,in vivo)*100,Qh:liver blood flow (7)
# [2] = type: in vitro ADME; settings: extraction ratio, compound at 1 uM; for Liver Microsomal Stability (ER) SD rat: SD rat liver microsomes 0.5 mg/mL; for Liver Microsomal Stability (ER) Beagle dog: beagle dog liver microsomes 0.5 mg/mL; for Liver Microsomal Stability (ER) Monkey: monkey liver microsomes 0.5 mg/mL; for Liver Microsomal Stability (ER) Mouse: mouse liver microsomes 0.5 mg/mL
# Procedure: as §1, §2, §3
# 40 μL aliquots of the liver microsome/test compound mixture were dispensed into 96-well plate in triplicate and pre-warmed the mixture for 5 minutes at 37° C. Then, 10 μL of 5 mM NADPH solution was added to each well to initiate the reaction, and gently mixed. The samples were incubated at 37° C. with gentle shaking. (Final concentrations: compound=1 μM; liver microsomes protein=0.5 mg/mL; MgCl2=2 mM; EDTA=1 mM; ACN=0.1%; DMSO=0.05%).
# as §4, §5, §6, §7, §8, §9, §10, §11, §12, §13
# [3] = tested on: SARS-CoV-2; assay: Anti-viral in vitro PRNT assay in Vero E6 cells; type: cell-based; settings: Vero E6 cells, 1000 pfu, 3 days, plaque reduction; for EC50: read-out: anti-SARS-CoV2 (PRNT) in Vero E6 EC50
# [4] = mouse oral PK, female Balb/c, 40 mg/kg single dose; for AUC0-t / Cmax / Tmax / t1/2: plasma
SMILES,Liver Microsomal Stability (ER) Human [1],Liver Microsomal Stability (ER) SD rat [2],Liver Microsomal Stability (ER) Beagle dog [2],Liver Microsomal Stability (ER) Monkey [2],Liver Microsomal Stability (ER) Mouse [2],anti-SARS-CoV2 (PRNT) in Vero E6 EC50 (μM) [3],EC50 [3] [nM],F % (bioavailability) [4] [%],AUC0-t [4] [ng·h/mL],Cmax [4] [ng/mL],Tmax [4] [min],t1/2 [4] [min]
COc1cccc2[nH]c(C(=O)N[C@@H](CC(C)C)C(=O)N[C@H](C#N)C[C@@H]3CCNC3=O)cc12 [Compound A-5-b],0.08,0.22,0.12,0.47,0.11,inactive,–,–,–,–,–,–
COc1cccc2[nH]c(C(=O)N[C@@H](CC(C)C)C(=O)N[C@@H](C[C@@H]3CCNC3=O)C(=O)CO)cc12 [Compound A-5-d],0.09,0.11,0.07,–,0.38,–,3500,–,–,–,–,–
CC(C)C[C@H](NC(=O)OCc1ccccc1)C(=O)N[C@H](C#N)C[C@@H]1CCNC1=O [Compound B-1-e],0.24,0.48,0.37,0.11,0.00,–,10500,–,–,–,–,–
C=CC(=O)N[C@H](C[C@@H]1CCNC1=O)NC(=O)[C@H](CC(C)C)NC(=O)OCc1ccccc1 [Compound B-1-f],−0.19,0.13,0.04,0.04,0.07,inactive,–,–,–,–,–,–
C=CC(=O)N[C@H](C[C@@H]1CCNC1=O)NC(=O)[C@H](CC1CCCCC1)NC(=O)OCc1ccccc1 [Compound B-2-e],0.73,0.19,0.47,0.70,0.43,inactive,–,–,–,–,–,–
C[C@@H](OC(C)(C)C)[C@H](NC(=O)OCc1ccccc1)C(=O)N[C@@H](CC1CCCCC1)C(=O)N[C@H](C=O)C[C@@H]1CCNC1=O [Compound C-2-b],0.66,0.29,0.48,0.43,0.48,–,730,5.0,665.2,496,15,52.6
CC(C)(C)[C@H](NC(=O)C(F)(F)F)C(=O)N1C[C@H]2[C@@H]([C@H]1C(=O)N[C@@H](C[C@@H]1CCNC1=O)C(=O)CO)C2(C)C [Compound D-1-c],0.04,0.04,−0.06,–,0.18,–,610,–,1359,410,30,174
C=CC(=O)N[C@H](C[C@@H]1CCNC1=O)NC(=O)[C@@H]1[C@@H]2[C@H](CN1C(=O)[C@@H](NC(=O)C(F)(F)F)C(C)(C)C)C2(C)C [Compound D-1-e],−0.05,0.04,−0.04,−0.10,−0.04,inactive,–,–,–,–,–,–
C[C@H](NC(=O)[C@@H]1[C@@H]2[C@H](CN1C(=O)[C@@H](NC(=O)C(F)(F)F)C(C)(C)C)C2(C)C)C(=O)CCl [Compound F-1-b],0.48,0.53,0.46,0.44,0.38,inactive,–,–,–,–,–,–
CC(C)[C@H](NC(=O)[C@@H]1[C@@H]2[C@H](CN1C(=O)[C@@H](NC(=O)C(F)(F)F)C(C)(C)C)C2(C)C)C(=O)CCl [Compound F-2-b],0.81,0.65,0.55,0.57,0.50,–,420,–,–,–,–,–
C[C@@H](C=O)NC(=O)[C@@H]1[C@@H]2[C@H](CN1C(=O)[C@@H](NC(=O)C(F)(F)F)C1CC1)C2(C)C [Compound F-3-c],−0.35,0.02,−0.04,−0.03,−0.05,inactive,–,–,–,–,–,–
CC(C)[C@@H](C#N)NC(=O)[C@@H]1[C@@H]2[C@H](CN1C(=O)[C@@H](NC(=O)C(F)(F)F)C1CC1)C2(C)C [Compound F-4-a],0.07,0.20,0.08,0.07,0.03,inactive,–,–,–,–,–,–
CC(C)C[C@H](NC(=O)C(F)F)C(=O)N1C[C@H]2[C@@H]([C@H]1C(=O)N[C@H](C#N)C[C@@H]1CCNC1=O)C2(C)C [Compound H-1-b],0.09,0.06,0.05,–,0.35,–,–,–,304,193,30,143
